Laboratory results from article PMC7809625 (Cell Reports, 2021).

Key:
VGLUT1 [1] = target: T1, VGLUT1 (Rattus norvegicus, UniProt Q62634); assay: inhibition of Pi uptake in COS7-VGLUT1 cells at […]; assay type: cell-based
T1 sequence (Q62634 1-560): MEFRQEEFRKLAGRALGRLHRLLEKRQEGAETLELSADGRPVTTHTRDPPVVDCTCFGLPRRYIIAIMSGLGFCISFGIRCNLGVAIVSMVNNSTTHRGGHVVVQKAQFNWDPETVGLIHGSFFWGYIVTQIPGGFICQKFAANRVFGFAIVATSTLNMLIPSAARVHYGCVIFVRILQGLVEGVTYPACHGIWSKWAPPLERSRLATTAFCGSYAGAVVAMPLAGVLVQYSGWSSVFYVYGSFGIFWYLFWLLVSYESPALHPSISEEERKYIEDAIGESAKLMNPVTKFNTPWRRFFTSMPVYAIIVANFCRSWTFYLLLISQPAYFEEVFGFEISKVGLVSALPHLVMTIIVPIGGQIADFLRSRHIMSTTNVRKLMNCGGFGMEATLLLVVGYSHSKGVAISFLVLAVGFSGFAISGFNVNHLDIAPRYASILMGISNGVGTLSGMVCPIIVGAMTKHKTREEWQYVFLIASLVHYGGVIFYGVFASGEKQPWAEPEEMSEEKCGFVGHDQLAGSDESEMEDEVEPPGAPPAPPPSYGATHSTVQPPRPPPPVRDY

VGLUT1 [2] = target: T1, VGLUT1; assay: inhibition of Na+-dependent Pi uptake in COS7-VGLUT1 cells; assay type: cell-based

Row | Structure (SMILES) | inhibition of Pi uptake in COS7-VGLUT1 cells at 10 uM (VGLUT1 [1]) | Ki (VGLUT1 [2]) [µM]
1 | O=C1OC2(c3cc(I)c(O)c(I)c3Oc3c2cc(I)c(O)c3I)c2c(Cl)c(Cl)c(Cl)c(Cl)c21 [RB, Rose bengal] | The absence of additive effect of NB9 and RB emphasizes the specificity of both inhibitors toward VGLUT1. | –
2 | N[C@@H](CCC(=O)O)C(=O)O [glutamate] | – | 1370
